These results are taken from publication PMC12087874, “Biaryl Phosphates and Phosphonates as Selective Inhibitors of the Transcription Factor STAT4” (Angewandte Chemie (International Ed. in English), 2025).

Assay [1] concerns the target T1, wild‐type STAT4 (Homo sapiens, UniProt Q14765).
T1 construct: 6xHis; made in house
T1 sequence (Q14765 1-748): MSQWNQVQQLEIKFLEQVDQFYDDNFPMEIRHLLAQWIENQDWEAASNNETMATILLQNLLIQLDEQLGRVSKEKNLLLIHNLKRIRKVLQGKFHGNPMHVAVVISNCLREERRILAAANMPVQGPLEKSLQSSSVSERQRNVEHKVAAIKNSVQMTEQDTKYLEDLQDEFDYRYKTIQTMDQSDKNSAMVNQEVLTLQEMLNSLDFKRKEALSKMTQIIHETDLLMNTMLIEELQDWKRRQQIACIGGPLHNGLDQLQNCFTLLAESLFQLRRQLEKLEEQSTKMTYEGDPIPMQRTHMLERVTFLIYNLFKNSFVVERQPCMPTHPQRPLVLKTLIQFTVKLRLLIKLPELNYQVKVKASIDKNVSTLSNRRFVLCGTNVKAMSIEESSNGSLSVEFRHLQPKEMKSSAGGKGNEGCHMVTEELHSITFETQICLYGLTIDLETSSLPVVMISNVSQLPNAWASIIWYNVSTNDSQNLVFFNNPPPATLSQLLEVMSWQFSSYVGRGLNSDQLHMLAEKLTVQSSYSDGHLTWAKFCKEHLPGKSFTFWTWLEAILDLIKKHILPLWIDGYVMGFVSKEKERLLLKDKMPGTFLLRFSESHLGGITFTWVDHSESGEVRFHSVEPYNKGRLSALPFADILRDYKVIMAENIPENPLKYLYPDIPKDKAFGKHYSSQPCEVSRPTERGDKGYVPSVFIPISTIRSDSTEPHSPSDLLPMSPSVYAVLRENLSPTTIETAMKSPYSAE
Put plainly: Isothermal titration calorimetry (ITC), wild-type STAT4. It is filed as binding. Particulars: for Kd: ITC, 25 °C, one-site binding model, read-out: K d (ITC), wild-type STAT4. Here is the method: Isothermal Titration Calorimetry
Purification of 6xHis-tagged proteins for ITC experiments was carried out by affinity chromatography on His-Bind resin. The eluting fractions were analyzed by SDS -PAGE.
Proteins were dialyzed against ITC buffer (10 mM Tris pH 8.0, 50 mM NaCl) using dialysi s tubing with a 50 kDa cut-off. ITC experiments were performed using a VP-ITC Micro Calorimeter (MicroCal). 6m was dissolved as a 100 mM stock in DMSO and diluted 1/1000 in ITC buffer (Tris pH 8.0 and 50 mM NaCl), resulting in a final concentration of 100 µM. 8k was dissolved as a 5 mM stock in ITC buffer and diluted 1/25 in ITC buffer with DMSO, resulting in a final concentration of 200 µM 8k. DMSO was added to a final concentration of 2% (v/v). To avoid errors caused by the detection of dilution heat, 0.1 % (v/v) DMSO for 6m or 2% (v/v) DMSO for 8k experiments was added to the buffers containing the proteins and to the reference buffer. Proteins were degassed before the experiments using a ThermoVac sample degassing station. The following conditions were used for ITC experiments: 10 µM STAT4 protein for 6m or 20 µM STAT4 protein for 8k experiments, 100 µM 6m or 200 µM 8k, 28 injections with 10 µL single injection volume, 250 s initial delay, 500 s spacing between injections, 250 µcal/s reference power, 300 rpm stirring at 25 °C for 6m or 220 rpm stirring at 25 °C for 8k. Data analysis was performed using NITPIC[1, 5] and SEDPHAT,[6] applying a low-noise integration approach. Data were fitted using a one-site binding model. Figures were generated using GUSSI.[7] Experiments were carried out in quadruplicate for 6m and triplicate
(In ITC the heat of successive injections is recorded.)

Assay [2] deals with T2, STAT4 (Homo sapiens, UniProt Q14765).
T2 sequence (Q14765 1-748): T1 sequence (Q14765 1-748)
The assay is described as follows: IL-12-induced STAT4 Tyr693 phosphorylation in NK-92 cells (Western blot). Details: utilizing cellular lysates from the STAT4‐expressing natural killer cell line NK‐92; endogenous in cells; host or cells: NK-92 (DSMZ). It is filed as cell-based. The following applies: treatment for 2 h (Figure S4). Here is the method: NK-92 cells (DSMZ) were cultured in α-MEM containing 12.5% fetal bovine serum (FBS), 12.5% horse serum, 2 mM L-glutamine, penicillin/streptomycin and 50 U/ml IL -2. […]
The components of cell lysates from treated cells, or heat-treated lysates from CETSA, were separated by SDS-PAGE (10%), transferred to nitrocellulose membrane (Bio-Rad) and detected using monoclonal rabbit primary antibodies (Cell Signaling), α-rabbit-HRP secondary antibody (Dako) and Western Lightning Plus chemiluminescence reagent (Perkin Elmer).
Bands were visualized using an ImageQuant system (GE Healthcare) and quantitated using ImageJ software (NIH). […]
The sitting drop was composed of 0.1 µl protein solution and 0.1 µl reservoir solution. Plates were stored at 19°C in a protein […]
In the first set of experiments, w e tried to crystallize STAT4 as a SUMO -STAT4 fusion protein […]
was cleaved off as described above.
Screening for crystallization conditions for tag-free STAT4 was performed both in the absence or presence of 1 equivalent of 6m or 6h. Since the chosen protein concentration of 3.6 mg/ml appeared to be too low, screening was repeated with a higher concentration of 6.4 mg/ml STAT4 for all conditions (corresponding to 100 µM 6m). Both the SUMO-STAT4 and the tag-free STAT4 preferentially precipitated under conditions containing polyethylene glycol. In one set of experiments, we also screened for conditions in the presence of the high-affinity peptide GY(PO3H2)LPQNID adapted from the IL-12 receptor. However, none of the conditions resulted in the growth of STAT4 crystals (Table S4).
(In general: In western blotting, separated proteins are transferred to a membrane and probed.)

Structures are written as SMILES. “Also recorded” adds a separate entry of the source.

For `O=P(O)(O)Oc1ccc(-c2ccc3ccccc3c2)cc1F` [Compound 6m], in assay [1], the Kd amounted to 1.3 ± 0.3 µM.

Regarding `Cc1cc(-c2ccc(C(F)(F)P(=O)(O)O)c(F)c2)cs1` [Compound 8k], in assay [1], the Kd amounted to 7.1 ± 1.1 µM. Further, in assay [1] (Kd (ITC) higher than IC50 (FP), STAT4), the “dissociation constant (ITC) relative to IC50 value in FP assays” value worked out at 2 fold. Also, the “inhibition of IL‐12‐induced STAT4 Tyr693 phosphorylation” value in assay [2] is recorded as “unable to inhibit; also recorded: does not inhibit”.
